This note sets out measurements from US20210084900A1, “Substituted 5-(haloalkyl)-5-hydroxy-isoxazoles for Combating Phytopathogenic Fungi” (BASF SE, priority 2017, published 2021).

Molecules are shown by their SMILES.

One series concerns Phakopsora pachyrhizi. The experiment in a line: Protective control of soy bean rust on soy beans, inoculation 1 day after spraying (glass house trial 2). Format: in vivo. Conditions: 600 ppm, protective (1 day), untreated plants 100% diseased leaf area. How it is done: (§1) Spray solutions were prepared in several steps. A mixture was prepared of acetone and/or dimethylsulfoxide and the wetting agent/emulsifier Wettol, which is based on ethoxylated alkylphenoles, in a relation (volume) solvent-emulsifier of 99 to 1 was added to 25 mg of the compound to give a total of 5 ml. Water was then added to a total volume of 100 ml. This stock solution was diluted with the described solvent-emulsifier-water mixture to the given concentration.
2. Protective Control of Soy Bean Rust on Soy Beans Caused by Phakopsora pachyrhizi
Leaves of pot-grown soy bean seedlings were sprayed to run-off with an aqueous suspension, containing the concentration of active ingredient or their mixture as described below. The plants were allowed to air-dry. The trial plants were cultivated for 1 day in a greenhouse chamber at 23 to 27° C. and a relative humidity between 60 and 80%.Then the plants were inoculated with spores of Phakopsora pachyrhizi. To ensure the success the artificial inoculation, the plants were transferred to a humid chamber with a relative humidity of about 95% and 20 to 24° C. for 24 hours. The trial plants were cultivated for fourteen days in a greenhouse chamber at 23 to 27° C. and a relative humidity between 60 and 80%. The extent of fungal attack on the leaves was visually assessed as % diseased leaf area.

The next series concerns Sclerotinia sclerotiorum. The series is described as follows: Preventative fungicidal control of rape stem rot on soy beans (glass house trial 5). Conditions: 300 ppm, soy bean, untreated plants 90% diseased leaf area. Format: in vivo. How it is done:
as §1
5. Preventative Fungicidal Control of Rape Stem Rot on Soy Beans Caused by (Sclerotinia scierotiorum
Young seedlings of soy beans were grown in pots. These plants were sprayed to run-off with an aqueous suspension, containing the concentration of active ingredient or mixture mentioned in the table below. The next day the treated plants were inoculated: Rye and millet grains were infected with Sclerotinia sclerotiorum. After the infection the grains were air dried for a week. The grains were powdered with a mixer. A small amount of powder was brought onto the soy bean (leaves). Then the trial plants were cultivated for 7 days in a greenhouse chamber at 23° C. and a relative humidity between 80 an 85%. The extent of fungal attack on the leaves was visually assessed with a classification method: 0, 33, 50, 67 and 100% disease of leaf area and stem.

In a further series the test system is Puccinia recondita. The experiment in a line: Preventative control of brown rust on wheat (glass house trial 6). Particulars: 300 ppm, preventative (inoculation 7 days after spraying), untreated plants 100% diseased leaf area. Format: in vivo. How it is done: as §1
6. Preventative Control of Brown Rust on Wheat Caused by Puccinia recondita
The first two developed leaves of pot-grown wheat seedling were sprayed to run-off with an aqueous suspension, containing the concentration of active ingredient or their mixture as described below. Seven days later the plants were inoculated with spores of Puccinia recondita. To ensure the success the artificial inoculation, the plants were transferred to a humid chamber without light and a relative humidity of 95 to 99% and 20 to 24° C. for 24 hours. Then the trial plants were cultivated for 6 days in a greenhouse chamber at 20 to 24° C. and a relative humidity between 65 and 70%. The extent of fungal attack on the leaves was visually assessed as % diseased leaf area.

What is called melting point is the temperature of the solid-liquid transition.

Take `CN(Cc1ccc(C2=NOC(O[Si](C)(C)C)(C(F)(F)F)C2)cc1)C(=O)C1CC1` (centres unmarked) [Ex-14]: the diseased leaf area in the series with Phakopsora pachyrhizi was determined as 0%.

In the case of `O=C(Nc1ccccc1)c1ccc(C2=NOC(OC(=O)N3CCCC3)(C(F)(F)F)C2)cc1` (centres unmarked) [Ex-26], in the series on Sclerotinia sclerotiorum, the diseased leaf area is 0%.

For `CCOCC(=O)OC1(C(F)(F)F)CC(c2ccc(C(=O)Nc3ccccc3)cc2)=NO1` (centres unmarked) [Ex-30], the diseased leaf area in the series on Phakopsora pachyrhizi and with Sclerotinia sclerotiorum was 0% each time. For `O=C(Nc1ccccc1)c1ccc(C2=NOC(OC(=O)C3CCCO3)(C(F)(F)F)C2)cc1` (centres unmarked) [Ex-28], the diseased leaf area with Phakopsora pachyrhizi and in the series with Sclerotinia sclerotiorum was 0% in each case.

As for `CN(C(=O)c1ccc(C2=NOC(O)(C(F)(F)F)C2)cc1)c1ccccc1` (centres unmarked) [Ex-2], the diseased leaf area in the series with Phakopsora pachyrhizi and in the series with Sclerotinia sclerotiorum was 0% throughout.

Compound `O=C(NCc1ccc(C2=NOC(O)(C(F)(F)F)C2)cc1)C1CC1` (centres unmarked) [Ex-4, N-[[4-[5-hydroxy-5-(trifluoromethyl)-4H-isoxazol-3-yl]phenyl]methyl]cyclopropanecarboxamide] gave a melting point of 207 °C. On to `CC(=O)OC1(C(F)(F)F)CC(c2ccc(CN(C)C(=O)C3CC3)cc2)=NO1` (centres unmarked) [Ex-15], for which the values for the diseased leaf area in the series with Puccinia recondita, in the series with Phakopsora pachyrhizi and in the series with Sclerotinia sclerotiorum were 12%, 0% and 0%, respectively.

Consider `CC(=O)OC1(C(F)(F)F)CC(c2ccc(CNC(=O)C3CC3)cc2)=NO1` (centres unmarked) [Ex-18], for which the diseased leaf area in the series with Phakopsora pachyrhizi and in the series with Sclerotinia sclerotiorum was 0% each time. With `CNC(=O)c1ccc(C2=NOC(OC(=O)C3CC3)(C(F)(F)F)C2)cc1` (centres unmarked) [Ex-42], the diseased leaf area in the series with Phakopsora pachyrhizi turned out to be 0%. Same read-out and setting: for `CC(C)CC(=O)OCOC1(C(F)(F)F)CC(c2ccc(C(=O)Nc3ccccc3)cc2)=NO1` (centres unmarked) [Ex-40] the value was 0%. `O=C(Nc1ccccc1)c1ccc(C2=NOC(OC(=O)N3CCOCC3)(C(F)(F)F)C2)cc1` (centres unmarked) [Ex-27] had a diseased leaf area with Sclerotinia sclerotiorum of 0%. In the case of `O=C(Nc1ccccc1)c1ccc(C2=NOC(O)(C(F)(F)F)C2)cc1` (centres unmarked) [Ex-7, 4-[5-Hydroxy-5-(trifluoromethyl)-4H-isoxazol-3-yl]-N-phenyl-benzamide], the melting point was 217 °C.

Regarding `COC1(C(F)(F)F)CC(c2ccc(CNC(=O)C3CC3)cc2)=NO1` (centres unmarked) [Ex-19], the diseased leaf area with Phakopsora pachyrhizi worked out at 0%. With `COC1(C(F)(F)F)CC(c2ccc(CN(C)C(=O)C3CC3)cc2)=NO1` (centres unmarked) [Ex-13], the diseased leaf area with Phakopsora pachyrhizi came out at 0%.
